Results taken from article PMC12321279, “Novel 4,5‐Dihydrothiazole‐Phenylpiperazine Derivatives: Synthesis, Docking Studies and Pharmacological Evaluation as Serotonergic Agents” (Chemmedchem, 2025).

Tests used:
mice [1] = test: Spontaneous locomotor activity; type: in vivo; details: 20 min observation
Procedure: (§1) The tests were performed on male white mice of the Albino Swiss strain, whose weight was between 24 and 30 g in Experimental Medicine Center, Medical University of Lublin, Poland. The animals were housed (four/five per cage). Before conducting the experimental tests, the animals were subjected to an adaptation that lasted seven days. This consisted of keeping them in a room with relatively constant conditions: a temperature of 22 ± 1 °C, a humidity of 55 ± 5% and lighting that mimicked the natural day and night rhythm (12 h/12 h). Constant access to food and water was provided. Standard feed—LSM Motycz pelleted feed—and tap water were used. Mice were randomly allocated to study groups. Each group was represented by 8–10 animals, depending on the research schedule. The experiments were performed according to the procedures set out in the regulations for animal experiments: National Institute of Health Guidelines for the Care and Use of Laboratory Animals (8th edition) and to the European Community Council Directive for the Care and Use of Laboratory Animals of 22 September 2010 (2010/63/EU). The study was approved by the Local Ethical Committee in Lublin (number of ethical approvals: 27/2023). Tested compounds: FG‐1, FG‐4, FG‐5, FG‐6, FG‐7, FG‐8, and FG‐18 were finely ground in mortars with the addition of the emulsifier Tween‐80. A suspension was obtained, which was then diluted with aqueous solution of 0.5% methylcellulose (tylose). The mixture was then administered intraperitoneally (i.p.) to the animals 60 min before the start of the experiments. Animals in the control groups received a 0.5% tylose solution. All substances were administered via the same route of administration in appropriate dose and volume of 0.1 mL per 10 g of animal body weight. Prior to the administration of the drug, the animals were weighed, during the interval between tests, they were provided with food, water, and constant living conditions.
An Opto‐Varimex‐4 Auto‐Track animal activity meter (Columbus Instruments, USA) was used to study animal movement, which consists of eight transparent cages with lids measuring 43 × 43 × 32 cm, a set of four infrared transmitters (each transmitter has 16 laser beams) and four detectors to monitor animal movements. Testing was initiated 60 min after compound administration. For the spontaneous locomotor activity study, tylose was administered to the control group and the tested compounds. For the amphetamine‐induced or MK‐801‐induced hyperactivity tests, tylose, the tested compounds and after 30 min, amphetamine (3 mg kg^−1) or MK‐801 (0.3 mg kg^−1) were administered. While the test was being performed, animals were individually caged, initially for 5 min of adaptation, followed by 20 min of actual mobility testing.

mice [2] = test: Body temperature in normothermic mice; type: in vivo
Procedure: (§2) The tests were performed on male white mice of the Albino Swiss strain, whose weight was between 24 and 30 g in Experimental Medicine Center, Medical University of Lublin, Poland. The animals were housed (four/five per cage). Before conducting the experimental tests, the animals were subjected to an adaptation that lasted seven days. This consisted of keeping them in a room with relatively constant conditions: a temperature of 22 ± 1 °C, a humidity of 55 ± 5% and lighting that mimicked the natural day and night rhythm (12 h/12 h). Constant access to food and water was provided. Standard feed—LSM Motycz pelleted feed—and tap water were used. Mice were randomly allocated to study groups. Each group was represented by 8–10 animals, depending on the research schedule. […]
Body temperature in normothermic mice was measured in the rectum of animals by thermistor thermometer till 120 min after tested compounds injection. […] The final temperature (tf) was measured 30, 60, 90, and 120 min after the injection of tested compounds. Body temperature changes (Δt) were calculated according to the formula: Δt = tf − ti.

mice [3] = test: DOI‐induced head‐twitch reaction (HTR); type: in vivo; details: 30 mg kg^−1 i.p. 60 min before DOI, 20 min observation
Procedure: as §2, with “schedule. The experiments were performed according to the procedures set out in the regulations for animal experiments: National Institute of Health Guidelines for the Care and Use of Laboratory Animals (8th edition) and to the European Community Council Directive for the Care and Use of Laboratory Animals of 22 September 2010 (2010/63/EU).” for “schedule.”
Head‐twitch reaction (HTR) is a very characteristic behavior of the head. […] Then, after administration of the tested compounds, DOI was immediately observed for 20 min, and the number of HTR was counted. […]

larval zebrafish = test: PTZ‐induced acute seizure assay in larval zebrafish; type: in vivo, zebrafish (Danio rerio); details: 5 dpf larvae, 20 h incubation at maximum‐tolerated concentration (FG‐1 500 μM, FG‐18 25 μM), PTZ 20 mM, 30 min
Procedure: All experiments were conducted on zebrafish (Danio rerio) larvae up to 5 days post fertilization (dpf), therefore, in accordance with current European legislation, ethical permission to conduct assays was not required. However, housing and experimental procedures were performed in compliance with the National Institute of Health Guidelines for the Care and Use of Laboratory Animals and the European Union Directive of 22 September 2010 (2010/63/EU) on protecting animals used for scientific purposes. All efforts were taken to minimize larvae stress and suffering. Larvae were euthanized with an overdose of tricaine ([…]). […] Before the respective behavioral tests were conducted, larvae at 4 dpf were incubated for 20 h in different arylpiperazine derivatives solutions of maximum‐tolerated concentrations (MCTs), determined during toxicological screening.^[ [30], [32] ^] […] Basic locomotor activity was measured using an automated tracking device, Daniovision by Noldus, and the total distance traveled was quantified using EthoVision XT software of the same company (Wageningen, the Netherlands) over a 30 min long observation period. […] The PTZ‐induced hyperlocomotion (acute seizure assay) was assessed in 5 dpf larval zebrafish (after 20 h incubation with tested derivatives at MCTs). […] Similarly, the data were recorded as the distance traveled (mm) by larvae when exposed to alternating lightning. […]

mice [4] = test: Amphetamine‐induced hyperactivity test; type: in vivo; details: 30 mg/kg i.p. 60 min before test, amphetamine 3 mg kg^−1 s.c., 20 min observation
Procedure: as §1, with “A suspension was obtained, which was then diluted with aqueous solution of 0.5% methylcellulose (tylose). The mixture was then administered intraperitoneally (i.p.) to the animals 60 min before the start of the experiments. Animals in the control groups received a 0.5% tylose solution. All substances were administered via the same route of administration in appropriate dose and volume of 0.1 mL per 10 g of animal body weight. Prior to the administration of the drug, the animals were weighed, during the interval between tests, they were provided with food, water, and constant living conditions.” left out

[5] = 15 mg kg^−1 i.p. 60 min before test
[6] = 30 mg/kg i.p. 60 min before test

SMILES | spontaneous locomotor activity (mice [1]; [5]) | spontaneous locomotor activity (mice [1]; [6]) | DOI‐induced HTR (number of head twitches) (mice [3]) | distance traveled by PTZ‐exposed larvae (seizure‐like behavior) (larval zebrafish) | amphetamine‐induced hyperactivity (mice [4]) | other results
O=C(NCCCN1CCN(c2ccc(C3=NCCS3)cc2)CC1)c1ccncc1 [FG‐6, N‐(3‐(4‐(4‐(4,5‐dihydrothiazol‐2‐yl) phenyl) piperazin‐1‐yl) propyl) isonicotinamide] | did not change the motility of mice | significant decrease in spontaneous locomotor activity |  |  |  | body temperature of normothermic mice (mice [2]; 15 mg kg^−1 i.p., from 30 to 90 min and also in 120 min): significant decrease in the body temperature
O=C(NCCCN1CCN(c2ccc(C3=NCCS3)cc2)CC1)C1CC2C=CC1C2 (stereo not drawn) [FG‐18, Endo‐ N‐(3‐(4‐(4‐(4,5‐dihydrothiazol‐2‐yl)phenyl)piperazin‐1‐yl)propyl) bicyclo[2.2.1]hept‐5‐ene‐2‐carboxamide] |  |  | significant decrease in HTR | significantly increased the distance traveled |  | 
O=C(NCCCN1CCN(c2ccccc2C2=NCCS2)CC1)c1ccncc1 [FG‐4, N‐(3‐(4‐(2‐(4,5‐dihydrothiazol‐2‐yl) phenyl) piperazin‐1‐yl) propyl) isonicotinamide] |  |  |  |  | significant decrease in amphetamine‐induced hyperactivity | 
O=C(NCCCN1CCN(c2cccc(C3=NCCS3)c2)CC1)c1ccncc1 [FG‐5, N‐(3‐(4‐(3‐(4,5‐dihydrothiazol‐2‐yl) phenyl) piperazin‐1‐yl) propyl) isonicotinamide] |  |  |  |  |  | body temperature of normothermic mice (mice [2]; 30 mg kg^−1 i.p., from 30 to 90 min): significant decrease in the body temperature
O=C(NCCCN1CCN(c2ccccc2C2=NCCS2)CC1)c1ccccn1 [FG‐1, N‐(3‐(4‐(2‐(4,5‐dihydrothiazol‐2‐yl) phenyl) piperazin‐1‐yl) propyl) picolinamide] |  |  | significant decrease in HTR | substantially decreased | significant decrease in amphetamine‐induced hyperactivity | 
O=C1C2C3C=CC(C3)C2C(=O)N1OCCCN1CCN(c2ccccc2C2=NCCS2)CC1 (stereo not drawn) [FG‐7, 2‐(3‐(4‐(2‐(4,5‐dihydrothiazol‐2‐yl) phenyl) piperazin‐1‐yl) propoxy)‐3a,4,7,7a‐tetrahydro‐1 H‐4,7‐methanoisoindole‐1,3(2 H)‐dione] | did not change the motility of mice | significant decrease in spontaneous locomotor activity |  |  |  | 
